Measured values published in patent US11400019B2, “Sustained release drug delivery systems with reduced impurities and related methods” (DURECT CORPORATION, priority 2020, dated 2022).
Several values for one entry are separate records, joined by “and”; a condition that tells them apart may be missing. Equal entries are not always repeated. One block for each compound: values may come before it.

Legend:
Format in all cases: physicochemical
[1] = 2,6-dimethylaniline standard in clear, amber and red glassware, HPLC with electrochemical detection
Procedure: A series of experiments was conducted examining the effects of amber and red colored glassware on the stability of the 2,6-dimethylaniline reference standard, using electrochemical detection, at a concentration of 3 ng/mL in an aqueous buffer/methanol solution.
In Experiment 1, the 2,6-dimethylaniline was prepared at a concentration of 3 ng/mL in a clear, colorless glass 100 mL volumetric flask. Aliquots were transferred into clear HPLC glass vials, and assayed against external standards. The 3 injections of the 2,6-dimethylaniline were consistently near 3 ng/mL.
In Experiment 2, the 2,6-dimethylaniline solution at 3 ng/mL prepared in a clear, colorless glass 100 mL volumetric flask was transferred to amber HPLC vials.
An aliquot was transferred into a clear HPLC glass vial, and assayed against external standards. The sample injection had the same 2,6-dimethylaniline concentration value as that in Experiment 1.
In Experiment 4, the 2,6-dimethylaniline solution at 3 ng/mL prepared in the red colored glass 100 mL volumetric flask coated with RAY-SORB® was transferred to an amber HPLC vial.

[2] = In vitro cumulative release of bupivacaine, USP Apparatus II dissolution, f1/f2 comparison; conditions: pre-heated in oven at 225° C. for 4 hours
Procedure: The in vitro cumulative release of bupivacaine from formulations was determined as follows.
The bupivacaine formulations, other than the heat-stressed formulation, were prepared by dissolving appropriate amounts of bupivacaine in appropriate amounts of benzyl alcohol (BA), adding an appropriate amount of sucrose acetate isobutyrate (SAIB), and stirring not less than 45 minutes at about 35° C. For the heat-stressed SAIB formulation, the same process was followed except the SAIB was pre-heated in an oven at 225° C. for 4 hours before use. A portion of the pre-heated SAIB was tested and found to have 98% SAIB remaining.
Dissolution was measured using a USP Apparatus II. Approximately 0.5 mL of each formulation was loaded via cannula and syringed into 900 mL±5 mL of 37±0.5° C. dissolution media (phosphate buffer at pH 7.4±0.05 with 0.03% sodium lauryl sulfate). The USP Apparatus II was set at 50 RPM, and samples were collected at 1, 4, 8, 12, 18, 24, 36, 48, and 72 hours. The number of replicates (N) per sample per time point varied as described above. The collected samples were assayed for bupivacaine content by HPLC.
The dissolution profile comparisons were conducted using a difference factor (f1) and a similarity factor (f2) approach (FDA Guidance for Industry “Dissolution Testing of Immediate Release Solid Oral Dosage Forms” August 1997). […]

Metal content by ICP-MS = assay: Metal content by ICP-MS
Procedure: Sucrose acetate isobutyrate was tested for metal content as follows. The sample was prepared with a 0.1 g weighed portion mixed with 2 mL nitric acid and 0.5 mL hydrochloric acid for 1 hour on a block digester set at 110° C. After cooling, 0.5 mL of 30% hydrogen peroxide was added, and the digestion resumed for 30 minutes (the material appeared dissolved). After cooling, internal standard solution was added and dilution with purified water to 20 g produced a solution for ICP-MS analysis.
Formulation A was compounded using steel compounding tanks. Silicone tubing was used to transfer Formulation A. Formulation A was filled into glass vials, which were then sealed with fluorocarbon-coated stoppers.
Formulation A was tested for metal content as follows. The sample was prepared with a 0.2 g weighed portion mixed with 2 mL nitric acid, 1 mL hydrochloric acid, and 1 mL hydrofluoric acid, then digested in a closed-vessel microwave system (the material appeared dissolved). After cooling, internal standard solution was added and dilution with purified water to 50 g produced a solution for ICP-MS analysis.

[3] = Peroxide content of SAIB and benzyl alcohol versus bupivacaine N-oxide
Procedure: The peroxide content for several lots of sucrose acetate isobutyrate were determined by potentiometric titration involving iodometric titration. The bupivacaine N-oxide levels in samples of Formulation A were determined using HPLC with UV detection.
The bupivacaine N-oxide data in Table 10.1 are for the longest available stability time points for each set of samples.
All of the benzyl alcohol compositions had peroxide values of less than […]. The peroxide value can be converted to peroxide content, expressed as hydrogen peroxide, by multiplying PV by 17. […] The maximum contribution to peroxide content from benzyl alcohol is 85 ppm divided by 3, or 28 ppm.

Compound: Cc1cccc(C)c1N [2,6-dimethylaniline]
Observed Concentration of Standard ([1]; Experiment 1: clear flask, clear HPLC vial, nominal 3 ng/mL): ~3 ng/mL | Observed Concentration of Standard ([1]; Experiment 1: clear flask, clear HPLC vial, nominal 3 ng/mL, listed as 2,6-Dimethlylaniline Standard): 3.0 ng/mL and 3.1 ng/mL | Observed Concentration of Standard ([1]; Experiment 2: clear flask, amber HPLC vial, listed as 2,6-Dimethlylaniline Standard): 24.5 ng/mL and 28.4 ng/mL and 34.6 ng/mL and 38.1 ng/mL | Observed Concentration of Standard ([1]; Experiment 3: red RAY-SORB flask, clear HPLC vial): 3.0 ng/mL | 2,6-dimethylaniline content, times higher than Experiments 1 and 3 ([1]; Experiment 4, amber HPLC vial): approximately 5 times | Observed Concentration of Standard ([1]; Experiment 4: red flask, amber HPLC vial): 14.9 ng/mL

SAIB remaining [2]: 98% | Gold content (Metal content by ICP-MS; detection limit 0.02): 0.4 ppm | Tin content (Metal content by ICP-MS; detection limit 0.04): 0.06 ppm | Iron content (Metal content by ICP-MS; detection limit 1): 2 ppm | peroxide in SAIB corresponding to 0.8% bupivacaine N-oxide ([3]; linear regression, FIG. 2): 232.5 ppm | peroxide in SAIB corresponding to 1.0% bupivacaine N-oxide ([3]; linear regression, FIG. 2): 296.4 ppm
Compound: sucrose acetate isobutyrate [SAIB]

effective peroxide contribution to formation of bupivacaine N-oxide ([3]; 8.5 ppm divided by 3): < 2.8 ppm | peroxide content, expressed as hydrogen peroxide ([3]; PV multiplied by 17): < 8.5 ppm | peroxide value (PV) ([3]; all lots used for Formulation A samples): less than 0.5
Compound: OCc1ccccc1 [benzyl alcohol]
